Reference: article PMC4515084 (Chemmedchem, 2015)

How the values were obtained:
[1] = Pharmacokinetic studies in rats
[2] = Solubility; format: physicochemical
[3] = target: human CYP 2C9 (Homo sapiens, UniProt P11712); assay: CYP inhibition assay, pooled human liver microsomes, diclofenac substrate; format: in vitro ADME
[4] = target: human CYP 3A4 (Homo sapiens, UniProt P08684); assay: CYP inhibition assay, pooled human liver microsomes, midazolam substrate; format: in vitro ADME
[5] = tested on: PPE-induced acute lung injury in mice; assay: PPE-induced acute lung injury; format: in vivo, mouse; details: PPE noxa
[6] = tested on: HNE-induced acute lung injury in mice; assay: HNE-induced acute lung injury; format: in vivo, mouse; details: administered 1 h prior to the HNE noxa
[7] = target: porcine pancreatic elastase (PPE) (Sus scrofa, UniProt P00772); assay: Serine protease selectivity: PPE; format: biochemical; details: listed as BAY 85-8501
Sequence of porcine pancreatic elastase (PPE) (P00772 27-266): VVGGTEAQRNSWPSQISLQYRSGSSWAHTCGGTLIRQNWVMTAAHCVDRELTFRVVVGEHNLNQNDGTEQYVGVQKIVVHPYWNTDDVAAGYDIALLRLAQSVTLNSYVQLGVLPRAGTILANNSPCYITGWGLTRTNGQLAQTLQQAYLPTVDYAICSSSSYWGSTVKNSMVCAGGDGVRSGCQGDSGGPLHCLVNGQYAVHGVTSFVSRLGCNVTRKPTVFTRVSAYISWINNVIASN

Sequence of human CYP 3A4 (P08684 whole entry): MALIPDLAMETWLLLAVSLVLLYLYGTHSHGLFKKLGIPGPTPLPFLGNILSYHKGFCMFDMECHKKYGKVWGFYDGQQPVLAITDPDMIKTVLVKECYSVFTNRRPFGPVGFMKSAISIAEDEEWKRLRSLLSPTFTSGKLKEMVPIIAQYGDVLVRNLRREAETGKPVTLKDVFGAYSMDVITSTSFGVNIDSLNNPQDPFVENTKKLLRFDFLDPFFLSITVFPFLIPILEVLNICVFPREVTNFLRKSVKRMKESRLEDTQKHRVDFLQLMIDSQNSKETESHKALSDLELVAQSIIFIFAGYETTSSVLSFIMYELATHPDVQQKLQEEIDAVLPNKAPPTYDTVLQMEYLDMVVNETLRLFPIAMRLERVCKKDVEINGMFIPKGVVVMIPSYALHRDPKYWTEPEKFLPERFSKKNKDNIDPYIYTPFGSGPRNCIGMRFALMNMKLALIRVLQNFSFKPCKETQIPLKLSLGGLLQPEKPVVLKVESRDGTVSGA
Sequence of human CYP 2C9 (P11712 whole entry): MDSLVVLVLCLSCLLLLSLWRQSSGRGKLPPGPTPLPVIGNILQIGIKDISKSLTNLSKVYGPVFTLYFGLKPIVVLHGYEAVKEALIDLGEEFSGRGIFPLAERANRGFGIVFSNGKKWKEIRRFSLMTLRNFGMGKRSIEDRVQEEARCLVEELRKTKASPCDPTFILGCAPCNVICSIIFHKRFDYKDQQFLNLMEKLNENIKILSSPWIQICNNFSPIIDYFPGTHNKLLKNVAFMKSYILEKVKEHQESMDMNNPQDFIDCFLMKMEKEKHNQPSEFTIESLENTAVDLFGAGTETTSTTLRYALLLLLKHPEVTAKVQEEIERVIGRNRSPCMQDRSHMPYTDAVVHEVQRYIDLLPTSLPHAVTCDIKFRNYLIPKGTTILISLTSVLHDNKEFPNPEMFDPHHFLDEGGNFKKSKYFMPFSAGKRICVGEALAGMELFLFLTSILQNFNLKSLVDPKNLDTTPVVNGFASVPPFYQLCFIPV

CC(=O)C1=C(C)N(c2cccc(C(F)(F)F)c2)C(=O)N[C@@H]1c1ccc(C#N)nc1 [Compound 20]
clearance ([1]; rat, in vivo, iv, 0.3 mg kg^−1): 33.3 mL/min/kg | clearance ([1]; rodents / rats): medium clearance

CC1=C(C(=O)OCCO)[C@@H](c2ccc(C#N)cc2)NC(=O)N1c1cccc(C(F)(F)F)c1 [Compound 17]
clearance ([1]; rat, in vivo, iv, 0.3 mg kg^−1): 35 mL/min/kg | clearance ([1]; rodents / rats): medium clearance

CC1=C(C#N)[C@@H](c2ccc(C#N)cc2S(C)(=N)=O)N(C)C(=O)N1c1cccc(C(F)(F)F)c1 (stereo partly shown) [Compound 30]
solubility [2]: improved solubility | IC50 [3]: > 50 µM | IC50 [4]: > 50 µM

CC1=C(C#N)[C@@H](c2ccc(C#N)cc2)N(CC(N)=O)C(=O)N1c1cccc(C(F)(F)F)c1 [Compound 23]
inhibition toward CYP 2C9 ([3]; up to a concentration of 50 μM): no observable inhibition | inhibition toward CYP 3A4 ([4]; up to a concentration of 50 μM): no observable inhibition

CC1=C(C#N)[C@@H](c2ccc(C#N)cc2S(C)(=O)=O)N(C)C(=O)N1c1cccc(C(F)(F)F)c1 [Compound 29, (4S)-4-[4-Cyano-2-(methylsulfonyl)phenyl]-3,6-dimethyl-2-oxo-1-[3-(trifluoromethyl)phenyl]-1,2,3,4-tetrahydropyrimidine-5-carbonitrile]
primary lung injury [5]: could not prevent | development of lung injury and subsequent inflammation [6]: completely prevented | effect on PPE [7]: no inhibitory effect | clearance ([1]; rat, in vivo, iv, 0.3 mg kg^−1): 8.33 mL/min/kg
